The text below walks through data of patent US20180325889A1, “IMMUNOREGULATORY AGENTS” (FLEXUS BIOSCIENCES, INC., priority 2014, published 2018).

T1 sequence (P14902 whole entry): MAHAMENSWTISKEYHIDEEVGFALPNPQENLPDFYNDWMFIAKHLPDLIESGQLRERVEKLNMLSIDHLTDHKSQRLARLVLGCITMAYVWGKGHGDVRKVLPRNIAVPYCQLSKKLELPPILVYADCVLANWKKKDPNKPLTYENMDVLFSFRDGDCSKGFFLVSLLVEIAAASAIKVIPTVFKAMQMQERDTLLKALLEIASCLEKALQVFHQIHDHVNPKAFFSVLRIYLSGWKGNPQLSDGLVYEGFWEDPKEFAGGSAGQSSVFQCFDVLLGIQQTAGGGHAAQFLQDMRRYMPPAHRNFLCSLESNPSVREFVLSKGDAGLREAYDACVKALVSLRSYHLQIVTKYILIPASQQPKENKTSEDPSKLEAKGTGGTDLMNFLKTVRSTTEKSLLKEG

This assay concerns the target T1, human IDO1/HEK293 cells (Homo sapiens, UniProt P14902).
T1 construct: expressed in transfected cells
Kind of assay: HEK Human IDO-1 cell-based IDO inhibition assay (kynurenine production). Particulars: HEK293 cells stably expressing human IDO1, 20 hours incubation, absorbance at 490 nm; read-out: HEK Human IDO-1 Bio Activity (IDO IC50). A digest of the protocol: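 Stopped with 0.2% TCA, 50 °C 30 min; supernatant mixed with 0.2% Ehrlich reagent, 30 min RT, kynurenine read as absorbance at 490 nm.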
With `C[C@@H](NC(=O)c1ccc(C#N)cc1)[C@H]1CC[C@@H](c2ccnc3ccc(F)cc32)CC1` [Example 176, 4-cyano-N-((R)-1-(cis-4-(6-fluoroquinolin-4-yl)cyclohexyl)ethyl)benzamide], the IC50 is less than 50 nM.
Consider `COc1ccc(-c2ccc(C(=O)N[C@H](C)[C@H]3CC[C@@H](c4ccnc5ccc(F)cc54)CC3)nc2)cc1F` [Example 178, 5-(3-fluoro-4-methoxyphenyl)-N-((R)-1-(cis-4-(6-fluoroquinolin-4-yl)cyclohexyl)ethyl)picolinamide], for which the IC50 was less than 250 nM.
For `C[C@@H](NC(=O)c1ccc(-n2cccc2)cc1)[C@H]1CC[C@@H](c2ccnc3ccc(F)cc32)CC1` [Example 195, N-((R)-1-(cis-4-(6-fluoroquinolin-4-yl)cyclohexyl)ethyl)-4-(1H-pyrrol-1-yl)benzamide] the value was less than 50 nM; for `C[C@@H](NC(=O)c1ccc(-n2ccnc2)cc1)[C@H]1CC[C@@H](c2ccnc3ccc(F)cc32)CC1` [Example 196, N-((R)-1-(cis-4-(6-fluoroquinolin-4-yl)cyclohexyl)ethyl)-4-(1H-imidazol-1-yl)benzamide], less than 50 nM; for `CC(NC(=O)c1ccc(Cl)cc1)C1CCC(c2ccnc3ccnn23)CC1` (stereo not drawn) [Example 197, 4-chloro-N-(1-(4-(pyrazolo[1,5-a]pyrimidin-7-yl)cyclohexyl)ethyl)benzamide], less than 250 nM.
In the case of `C=CC[C@@H](NC(=O)c1ccc(Cl)cc1)[C@H]1CC[C@@H](c2ccnc3ccc(F)cc32)CC1` [Example 198, 4-chloro-N—((R)-1-((1s, 4S)-4-(6-fluoroquinolin-4-yl)cyclohexyl)but-3-en-1-yl) benzamide], the IC50 was less than 50 nM.
Next, `C=CC[C@@H](NC(=O)c1ccc(-c2ccccc2)cc1)[C@H]1CC[C@@H](c2ccnc3ccc(F)cc32)CC1` [Example 199, N—((R)-1-((is, 4S)-4-(6-fluoroquinolin-4-yl)cyclohexyl)but-3-en-1-yl)-[1,1′-biphenyl]-4-carboxamide]: less than 2000 nM.
For `CC(NC(=O)c1ccc(Cl)cc1)C1CCC(c2ccnc(C(F)(F)F)c2)CC1` (stereo not drawn) [Example 211, 4-chloro-N-(1-(4-(2-(trifluoromethyl)pyridin-4-yl)cyclohcxyl)ethyl)benzamide] the value was less than 250 nM.
Turning to `CC(NC(=O)c1ccc(Cl)cc1)C1CCC(c2ccc(C(F)(F)F)nc2)CC1` (stereo not drawn) [Example 216, 4-chloro-N-(1-(4-(6-(trifluoromcthyr)pyridin-3-yl)cyclohexyl)ethyl)benzamide], the IC50 was less than 250 nM.
Next, `Cc1c(C2CCC(C(C)NC(=O)c3ccc(-c4ccccc4)cc3)CC2)ccnc1F` (stereo not drawn) [Example 221, N-(1-(4-(2-fluoro-3-methylpyridin-4-yl)cyclohexyl)ethyl)-[1,1′-biphenyl]-4-carboxamide]: less than 50 nM; `CC1(CNC(=O)c2ccc(Cl)cc2)CCN(c2ccnc3ccc(F)cc23)CC1` [Example 226, 4-Chloro-N-((1-(6-fluoroquinolin-4-yl)-4-methylpiperidin-4-yl)methyl)benzamide]: less than 2000 nM.
As for `CC1(CNC(=O)c2ccc(Cl)cc2)CCN(c2ccnc(C(F)(F)F)c2)CC1` [Example 227, 4-Chloro-N-((4-methyl-1-(2-(trifluoromethyl)pyridin-4-yl)piperidin-4-yl)methyl)benzamide], the half-inhibitory concentration (IC50) is less than 2000 nM.
For `CC1(CNC(=O)c2ccc(-c3ccccc3)cc2)CCN(c2ccnc(C(F)(F)F)c2)CC1` [Example 228, N-((4-Methyl-1-(2-(trifluoromethyl)pyridin-4-yl)piperidin-4-yl)methyl)-[1,1′-biphenyl]-4-carboxamide], the IC50 was less than 2000 nM.
For `Cc1nnc(-c2ccc(C(=O)N[C@H](C)[C@H]3CC[C@@H](c4ccnc5ccc(F)cc54)CC3)cc2)o1` [Example 232, N—((R)-1-((1s,4S)-4-(6-fluoroquinolin-4-yl)cyclohexyl)ethyl)-4-(5-methyl-1,3,4-oxadiazol-2-yl)benzamide] the value was less than 250 nM; for `C[C@@H](NC(=O)c1ccc(-c2cnccn2)cc1)[C@H]1CC[C@@H](c2ccnc3ccc(F)cc32)CC1` [Example 233, N-((R)-1-((1s,4S)-4-(6-fluoroquinolin-4-yl)cyclohexyl)ethyl)-4-(pyrazin-2-yl)benzamide], less than 50 nM.
For `C[C@@H](NC(=O)c1ccc(-c2cncnc2)cc1)[C@H]1CC[C@@H](c2ccnc3ccc(F)cc32)CC1` [Example 234, N-((R)-1-((1s,4S)-4-(6-fluoroquinolin-4-yl)cyclohexyl)ethyl)-4-(pyrimidin-5-yl)benzamide] the value was less than 50 nM; for `C[C@@H](NC(=O)c1ccc(-c2cn(C)cn2)cc1)[C@H]1CC[C@@H](c2ccnc3ccc(F)cc32)CC1` [Example 235, N-((R)-1-((1s,4S)-4-(6-fluoroquinolin-4-yl)cyclohexyl)cthyl)-4-(1-methyl-1H-imidazol-4-yl)benzamide], less than 50 nM.
Next, `COc1nccc(-c2ccc(C(=O)N[C@H](C)[C@H]3CC[C@@H](c4ccnc5ccc(F)cc54)CC3)cc2)n1` [Example 236, N-((R)-1-((1s,4S)-4-(6-fluoroquinolin-4-yl)cyclohexyl)ethyl)-4-(2-methoxypyrimidin-4-yl)benzamide]: less than 50 nM; `C[C@@H](NC(=O)c1ccc(-c2ccc(S(C)(=O)=O)nc2)cc1)[C@H]1CC[C@@H](c2ccnc3ccc(F)cc32)CC1` [Example 237, N-((R)-1-((1s,4S)-4-(6-fluoroquinolin-4-yl)cyclohexyl)ethyl)-4-(6-(methylsulfonyl)pyridin-3-yl)benzamide]: less than 2000 nM; `Cc1ncc(-c2ccc(C(=O)N[C@H](C)[C@H]3CC[C@@H](c4ccnc5ccc(F)cc54)CC3)cc2)s1` [Example 238, N-((R)-1-((1s,4S)-4-(6-fluoroquinolin-4-yl)cyclohexyl)ethyl)-4-(2-methylthiazol-5-yl)benzamide]: less than 50 nM.
For `C[C@@H](NC(=O)c1ccc(-c2cnc(C#N)nc2)cc1)[C@H]1CC[C@@H](c2ccnc3ccc(F)cc32)CC1` [Example 240, 4-(2-cyanopyrimidin-5-yl)-N-((R)-1-((1s,4S)-4-(6-fluoroquinolin-4-yl)cyclohexyl)ethyl)benzamide], the IC50 is less than 2000 nM.
For `COc1nc(-c2ccc(C(=O)N[C@H](C)[C@H]3CC[C@@H](c4ccnc5ccc(F)cc54)CC3)cc2)cs1` [Example 241, N-((R)-1-((1s,4S)-4-(6-fluoroquinolin-4-yI)cyclohexyl)ethyl)-4-(2-methoxythiazol-4-yl)benzamide] the value was less than 50 nM; for `C[C@@H](NC(=O)c1ccc(-c2ccc(C(C)(C)O)cc2)cc1)[C@H]1CC[C@@H](c2ccnc3ccc(F)cc32)CC1` [Example 242, N-((R)-1-((1s,4S)-4-(6-fluoroquinolin-4-yl)cyclohexyl)ethyl)-4′-(2-hydroxypropan-2-yl)biphenyl-4-carboxamide], less than 250 nM; for `C[C@@H](NC(=O)c1ccc(-c2cscn2)cc1)[C@H]1CC[C@@H](c2ccnc3ccc(F)cc32)CC1` [Example 243, N-((R)-1-((1s,4S)-4-(6-fluoroquinolin-4-yl)cyclohcxyl)cthyl)-4-(thiazol-4-yl)benzamide], less than 50 nM.
For `C[C@@H](NC(=O)c1ccc(-c2nnco2)cc1)[C@H]1CC[C@@H](c2ccnc3ccc(F)cc32)CC1` [Example 244, N-((R)-1-((1s,4S)-4-(6-fluoroquinolin-4-yl)cyclohexyl)ethyl)-4-(1,3,4-oxadiazol-2-yl)benzamide] the value was less than 50 nM; for `COc1ccc(-c2ccc(C(=O)N[C@H](C)[C@H]3CC[C@@H](c4ccnc5ccc(F)cc54)CC3)cc2)cn1` [Example 245, N-((R)-1-((1s,4S)-4-(6-fluoroquinolin-4-yl)cyclohexyl)ethyl)-4-(6-methoxypyridin-3-yl)benzamide], less than 50 nM; for `C[C@@H](NC(=O)c1ccc(N2CCOCC2)cc1)[C@H]1CC[C@@H](c2ccnc3ccc(F)cc32)CC1` [Example 246, N-((R)-1-((1s,4S)-4-(6-fluoroquinolin-4-yl)cyclohexyl)ethyl)-4-morpholinobenzamide], less than 250 nM.
In the case of `C[C@@H](NC(=O)c1ccc(C2CC2)cc1)[C@H]1CC[C@@H](c2ccnc3ccc(F)cc32)CC1` [Example 247, 4-cyclopropyl-N-((R)-1-((1s,4S)-4-(6-fluoroquinolin-4-yl)cyclohexyl)ethyl)benzamide], the IC50 is less than 50 nM.
For `C[C@@H](NC(=O)c1ccc(C2(C)CC2)cc1)[C@H]1CC[C@@H](c2ccnc3ccc(F)cc32)CC1` [Example 248, N-((R)-1-((1s,4S)-4-(6-fluoroquinolin-4-yl)cyclohexyl)ethyl)-4-(1-methylcyclopropyl)benzamide] the value was less than 50 nM.
Take `C[C@@H](NC(=O)c1ccc(C(F)(F)F)cc1)[C@H]1CC[C@@H](c2ccnc3ccc(F)cc32)CC1` [Example 249, N-((R)-1-((1s,4S)-4-(6-fluoroquinolin-4-yl)cyclohexyl)ethyl)-4-(trifluoromethyl)benzamide]: the half-inhibitory concentration (IC50) is less than 50 nM.
For `C[C@@H](NC(=O)c1ccc(-c2cnco2)cc1)[C@H]1CC[C@@H](c2ccnc3ccc(F)cc32)CC1` [Example 250, N-((R)-1-((1s,4S)-4-(6-fluoroquinolin-4-yl)cyclohexyl)ethyl)-4-(oxazol-5-yl)benzamide] the value was less than 50 nM.
As to `C[C@@H](NC(=O)c1ccc(-c2ncnn2C)cc1)[C@H]1CC[C@@H](c2ccnc3ccc(F)cc32)CC1` [Example 251, N-((R)-1-((1s,4S)-4-(6-fluoroquinolin-4-yl)cyclohexyl)ethyl)-4-(1-methyl-1H-1,2,4-triazol-5-yl)benzamide], the IC50 is less than 250 nM.
Take `Cc1cnc(-c2ccc(C(=O)N[C@H](C)[C@H]3CC[C@@H](c4ccnc5ccc(F)cc54)CC3)cc2)s1` [Example 252, N-((R)-1-((1s,4S)-4-(6-fluoroquinolin-4-yl)cyclohexyl)ethyl)-4-(5-methylthiazol-2-yl)benzamide]: the half-inhibitory concentration (IC50) was less than 50 nM.

For orientation: IC50 means the concentration at which inhibition is half-maximal.
